In patent US11427556B2, “Urea derivatives as inhibitors of ASK1” (Hepagene Therapeutics (HK) Limited, priority 2017, dated 2022) one finds EC50 data, which are given here for 45 compounds.

Structures are written as SMILES. A value given as a limit tells only on which side of the number the result lay.

In the first test the target is T1, Recombinant human ASK1 kinase (Homo sapiens, UniProt Q99683).
T1 construct: purchased Invitrogen Inc
T1 sequence (Q99683 1-1374): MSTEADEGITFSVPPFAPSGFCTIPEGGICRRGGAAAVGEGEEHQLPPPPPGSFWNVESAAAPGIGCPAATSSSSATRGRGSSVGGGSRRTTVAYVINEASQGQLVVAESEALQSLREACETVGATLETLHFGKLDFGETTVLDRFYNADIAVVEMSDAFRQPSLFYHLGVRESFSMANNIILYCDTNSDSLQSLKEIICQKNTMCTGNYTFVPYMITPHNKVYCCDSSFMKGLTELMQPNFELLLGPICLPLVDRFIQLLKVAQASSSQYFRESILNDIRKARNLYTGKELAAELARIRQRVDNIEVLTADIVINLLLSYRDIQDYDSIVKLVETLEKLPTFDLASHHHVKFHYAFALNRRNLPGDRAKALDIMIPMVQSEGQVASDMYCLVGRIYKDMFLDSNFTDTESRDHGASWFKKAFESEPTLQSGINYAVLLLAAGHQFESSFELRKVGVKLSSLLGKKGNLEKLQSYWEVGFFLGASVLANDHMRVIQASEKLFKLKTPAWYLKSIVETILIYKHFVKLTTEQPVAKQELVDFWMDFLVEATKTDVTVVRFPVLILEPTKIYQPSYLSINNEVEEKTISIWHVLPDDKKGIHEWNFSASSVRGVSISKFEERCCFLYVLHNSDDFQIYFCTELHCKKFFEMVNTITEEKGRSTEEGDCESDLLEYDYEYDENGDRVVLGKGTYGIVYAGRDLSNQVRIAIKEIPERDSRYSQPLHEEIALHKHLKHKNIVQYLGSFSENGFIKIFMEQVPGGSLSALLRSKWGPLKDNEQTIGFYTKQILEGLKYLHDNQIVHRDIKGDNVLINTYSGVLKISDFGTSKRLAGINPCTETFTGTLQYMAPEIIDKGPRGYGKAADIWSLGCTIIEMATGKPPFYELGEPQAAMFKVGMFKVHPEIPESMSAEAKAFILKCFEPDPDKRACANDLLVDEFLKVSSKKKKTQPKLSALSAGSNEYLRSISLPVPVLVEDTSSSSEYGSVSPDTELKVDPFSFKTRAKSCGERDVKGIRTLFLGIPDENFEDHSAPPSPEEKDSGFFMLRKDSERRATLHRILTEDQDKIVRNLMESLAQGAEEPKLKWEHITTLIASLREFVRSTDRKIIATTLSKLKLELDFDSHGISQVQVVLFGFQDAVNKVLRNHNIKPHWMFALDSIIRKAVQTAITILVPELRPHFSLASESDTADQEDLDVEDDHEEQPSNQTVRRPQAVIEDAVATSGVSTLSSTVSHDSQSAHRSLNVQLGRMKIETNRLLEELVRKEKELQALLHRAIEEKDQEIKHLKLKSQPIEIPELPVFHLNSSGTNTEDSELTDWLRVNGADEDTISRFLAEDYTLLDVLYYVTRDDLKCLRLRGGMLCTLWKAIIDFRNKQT
The test is described as follows: ASK1 kinase HTRF assay (HTRF KinEASE-STK, phosphorylation of biotinylated peptide substrate). It counts as biochemical.
Settings: not given
Here is the method: Reagents: Recombinant human ASK1 kinase was from Invitrogen Inc. HTRF KinEASETM-STK S3 kit was obtained from Cisbio (Bedford, Mass.). All other reagents were of the highest grade commercially available.
Assay: The assay measures the phosphorylation level of a biotinylatd peptide substrate by the ASK1 kinase using HTRF detection. ASK1 kinase assay is based on HTRF KinEASETM-STK manual from Cisbio. Test compound, 1 uM STK-substrate-biotin, 3 nM of ASK1 kinase are incubated with 1*Kinase buffer with 5 mM MgCl2 and 1 mM DTT.
Regarding `C[C@H](CO)n1cnnc1-c1cccc(NC(=O)Nc2ccc3ccccc3n2)n1` [Compound I-069], the EC50 is less than 50 nM.

Regarding `CC(C)n1cnnc1-c1cccc(NC(=O)Nc2cc(C(=O)N3CCNCC3)ccn2)n1` [Compound I-139], the half-maximal effective concentration (EC50) is less than 50 nM.

As to `CC(C)n1cnnc1-c1cccc(NC(=O)Nc2cc(C(=O)N3CCOCC3)ccn2)n1` [Compound I-132], the half-maximal effective concentration (EC50) was less than 50 nM.

Regarding `CC(C)n1cnnc1-c1cccc(NC(=O)Nc2cc3ccccc3cn2)n1` [Compound I-057], the EC50 is less than 50 nM.

Still in this test, the particulars now being: 3 nM ASK1 kinase, 1 uM STK-substrate-biotin, HTRF detection; read-out: EC50.
As to `CC(C)n1cnnc1-c1cccc(NC(=O)Nc2ccc(-c3cccnc3)cn2)n1` [Compound I-089], the EC50 was less than 50 nM.

In the case of `C[C@H](CO)n1cnnc1-c1cccc(N2CCN(c3ccc(F)cn3)C2=O)n1` [Compound V-03], the EC50 is less than 50 nM.

Regarding `CC(C)n1cnnc1-c1cccc(NC(=O)Nc2cc(-c3ccncc3)ccn2)n1` [Compound I-087], the 50% effective concentration (EC50) was less than 50 nM.

As to `CC(C)n1cnnc1-c1cccc(N2CCN(c3ccc(-c4ccccc4)cn3)C2=O)n1` [Compound V-05], the EC50 was less than 50 nM.

As for `CC(C)n1cnnc1-c1cccc(N2CCN(c3ccc(F)cn3)C2=O)n1` [Compound V-02], the concentration giving a half-maximal response (EC50) was less than 50 nM.

`CC(C)n1cnnc1-c1cccc(NC(=S)Nc2ccccn2)n1` [VI-01, 1-(6-(4-Isopropyl-4H-1,2,4-triazol-3-yl)pyridin-2-yl)-3-(pyridin-2-yl)thiourea]: the EC50 fell in the range of 50 to 500 nM.

In the case of `Cc1cc(F)c(NC(=O)Nc2cccc(-c3nncn3C(C)C)n2)cc1-n1cnc(C2CC2)c1` [Compound I-020], the EC50 lay in the range of 500 to 5000 nM.

On to `CC(C)n1cnnc1-c1cccc(NC(=O)Nc2cc([N+](=O)[O-])ccn2)n1` [Compound I-175], for which the EC50 is less than 50 nM.

With `CC1CN(c2ccc(N3CCN(c4cccc(-c5nncn5C(C)C)n4)C3=O)nc2)CC(C)O1` (stereo not drawn) [Compound V-16], the EC50 was less than 50 nM.

In the case of `C[C@H](CO)n1cnnc1-c1cccc(N2CCN(c3ccc(N4CCNCC4)cn3)C2=O)n1` [Compound V-22], the EC50 was less than 50 nM.

`CC(n1cnnc1-c1cccc(NC(=O)Nc2ccccn2)n1)C(F)(F)F` (stereo not drawn) [Compound I-003, 3-(Pyridin-2-yl)-1-[6-[4-(1,1,1-trifluoropropan-2-yl)-4H-1,2,4-triazol-3-yl]pyridin-2-yl]urea]: the EC50 is less than 50 nM.

With `CC(C)n1cnnc1-c1cccc(NC(=O)Nc2cc(C(=O)Nc3cccnc3)ccn2)n1` [Compound I-162], the half-maximal effective concentration (EC50) was less than 50 nM.

On to `CC(C)n1cnnc1-c1cccc(NC(=O)Nc2ccc(C3CC3)cn2)n1` [Compound I-046], for which the concentration giving a half-maximal response (EC50) was less than 50 nM.

With `C[C@H](CO)n1cnnc1-c1cccc(N2CCN(c3ccc(C(=O)N4CCCCC4)cn3)C2=O)n1` [Compound V-23], the concentration giving a half-maximal response (EC50) was less than 50 nM.

Consider `CC(C)c1ccnc(NC(=O)Nc2cccc(-c3nncn3C(C)C)n2)c1` [Compound I-045], for which the EC50 is less than 50 nM.

For `Cc1ccc(N(C)C(=O)Nc2cccc(-c3nncn3C(C)C)n2)c(F)c1` [II-01, 1-(2-Fluoro-4-methylphenyl)-3-(6-(4-isopropyl-4H-1,2,4-triazol-3-yl)pyridin-2-yl)-1-methylurea], the EC50 was 500 to 5000 nM.

Turning to `CC(C)n1cnnc1-c1cccc(N2CCN(c3ccc(-c4ccc(F)cc4)cn3)C2=O)n1` [Compound V-06], the 50% effective concentration (EC50) is less than 50 nM.

On to `C[C@H](CO)n1cnnc1-c1cccc(NC(=O)Nc2cc(C3CCOCC3)ccn2)n1` [Compound I-092], for which the concentration for a half-maximal effect (EC50) was less than 50 nM.

Consider `CC(C)n1cnnc1-c1cccc(NC(=O)Nc2cc(C3CCOCC3)ccn2)n1` [Compound I-091], for which the EC50 was less than 50 nM.

For `CC(=O)OC[C@@H](C)n1cnnc1-c1cccc(N2CCN(c3ccc(N4CCOCC4)cn3)C2=O)n1` [Compound V-19], the EC50 was 50 to 500 nM.

As to `C[C@H](CO)n1cnnc1-c1cccc(-n2ccn(-c3cc(-c4ccccc4)ccn3)c2=O)n1` [III-08], the EC50 was 50 to 500 nM.

Turning to `CC(C)n1cnnc1-c1cccc(NC(=O)Nc2cc(S(N)(=O)=O)ccn2)n1` [Compound I-205], the concentration giving a half-maximal response (EC50) is less than 50 nM.

Regarding `CC(C)[C@H](N)C(=O)OC[C@@H](C)n1cnnc1-c1cccc(NC(=O)Nc2cc(C(=O)N3CCCCC3)ccn2)n1` [Compound I-013, (2R)-2-[3-[6-([[4-(Piperidine-1-carbonyl)pyridin-2-yl]carbamoyl]amino)pyridin-2-yl]-4H-1,2,4-triazol-4-yl]propyl (2S)-2-amino-3-methylbutanoate], the 50% effective concentration (EC50) was less than 50 nM.

With `C[C@H](CO)n1cnnc1-c1cccc(NC(=O)Nc2cc(C(=O)N3C4CCCC3CC4)ccn2)n1` [Compound I-150], the 50% effective concentration (EC50) is less than 50 nM.

For `CC(C)n1cnnc1-c1cccc(NC(=O)Nc2cc(N3CCN(C4CC4)CC3)ccn2)n1` [Compound I-100], the EC50 was less than 50 nM.

Consider `CC(C)n1cnnc1-c1cccc(NC(=O)Nc2cc(C(=O)NC3CCCCC3)ccn2)n1` [Compound I-151], for which the EC50 was less than 50 nM.

Consider `CC(C)n1cnnc1-c1cccc(NC(=O)Nc2cccc(Br)n2)n1` [Compound I-179], for which the EC50 was less than 50 nM.

In the case of `C[C@H](CO)n1cnnc1-c1cccc(NC(=O)Nc2cc(C(=O)N3CCC(C)(C)CC3)ccn2)n1` [Compound I-007, (R)-1-(4-(4,4-Dimethylpiperidine-1-carbonyl)pyridin-2-yl)-3-(6-(4-(1-hydroxypropan-2-yl)-4H-1,2,4-triazol-3-yl)pyridin-2-yl)urea], the half-maximal effective concentration (EC50) is less than 50 nM.

On to `CC(C)n1cnnc1-c1cccc(NC(=O)Nc2cc(-c3ccccn3)ccn2)n1` [Compound I-084], for which the EC50 was less than 50 nM.

As for `Cc1cccc(NC(=O)Nc2cccc(-c3nncn3C(C)C)n2)n1` [Compound I-040], the concentration giving a half-maximal response (EC50) was less than 50 nM.

As to `CC(C)n1cnnc1-c1cccc(NC(=O)Nc2cc(C(=O)Nc3ccc(C(C)(C)C)cc3)ccn2)n1` [Compound I-160], the EC50 is less than 50 nM.

As to `C[C@H](CO)n1cnnc1-c1cccc(NC(=O)Nc2cc(-c3ccccc3)ccn2)n1` [Compound I-078], the EC50 is less than 50 nM.

Regarding `CC(C)n1cnnc1-c1cccc(NC(=O)Nc2ccc(Cl)cn2)n1` [Compound I-184], the EC50 was less than 50 nM.

`CC(C)n1cnnc1-c1cccc(NC(=O)Nc2ncccc2Br)n1` [Compound I-176]: the EC50 is less than 50 nM.

Consider `CC(C)n1cnnc1-c1cccc(NC(=O)Nc2cc(Br)ccn2)n1` [Compound I-177], for which the EC50 is less than 50 nM.

Turning to `CC(C)n1cnnc1-c1cccc(NC(=O)Nc2cc(C(=O)O)ccn2)n1` [Compound I-202, 2-(3-(6-(4-Isopropyl-4H-1,2,4-triazol-3-yl)pyridin-2-yl)ureido)isonicotinic acid], the EC50 was less than 50 nM.

On to `CC(C)n1cnnc1-c1cccc(NC(=O)Nc2cc(I)ccn2)n1` [Compound I-173], for which the concentration giving a half-maximal response (EC50) is less than 50 nM.

As for `Cc1ccc(NC(=O)Nc2cccc(-c3nncn3[C@H](C)CO)n2)nc1` [Compound I-036], the 50% effective concentration (EC50) was less than 50 nM.

On to `CC(C)n1cnnc1-c1cccc(NC(=O)Nc2cc(N3CCC(N4CCOCC4)CC3)ccn2)n1` [Compound I-106], for which the EC50 was less than 50 nM.

For the compound `CC(C)n1cnnc1-c1cccc(N2CCN(c3ccc(N4CCNCC4)cn3)C2=O)n1` [Compound V-01, 1-(6-(4-Isopropyl-4H-1,2,4-triazol-3-yl)pyridin-2-yl)-3-(5-(piperazin-1-yl)pyridin-2-yl)imidazolidin-2-one], the half-maximal effective concentration (EC50) is less than 50 nM.

Take `CC(C)n1cnnc1-c1cccc(NC(=O)Nc2ccc(Br)cn2)n1` [Compound I-178]: the EC50 was less than 50 nM.
